Experimental data published in patent US4145444A, “Anti-inflammatory agent of benzoyl derivative” (priority 1977, dated 1979).
Read-outs that look alike come from different tables or passages of the source.

Key:
[1] = tested on: hind paws of male rats; experiment: Anti-inflammatory effect: acute carragheenin edema method; type: in vivo; conditions: for inhibition in vivo at 100 mg/kg: Rattus norvegicus, read-out: Anti-inf.: edema inhibition rate; for anti-inflammatory effect, inhibition rate (ED50), in words: rat, in vivo
Protocol: The edema was induced by subcutaneous injection of 1% carragheenin suspension in saline to the hind paws of male rats weighting 150 to 180 g. Each sample was orally given at the dosage of 100 mg/kg just before the inoculation of carragheenin.

[2] = tested on: thrombus; experiment: Inhibiting effect on thrombosis (by-pass between left juglar vein and right carotid artery, silk thread); type: in vivo, SD type male rates; conditions: Rattus norvegicus, read-out: Thrombosis inh.: thrombosis inhibition rate
Protocol: The inhibiting effects of the samples of the invention on thrombosis were tested by the following test method.
A 0.5 ml of 50 μ/ml of the heparin physiological saline was added through the polyethylene tube before the first blood circulation. After the blood circulation for 15 minutes, the circulation was stopped in the middle of the tubing at artery side with a pinch cock.
Then, 0.2 ml of the heparin physiological saline was added to remove the blood coagulates on the tubing wall and another new polyethylene tubing filled with the heparin solution and containing a piece of new silk thread was attached between the venous and artery tubing ends.
The blood circulation was reestablished by opening the pinch cock. After 15 minutes, the wet weight of thrombus on the silk thread was similarly measured.
In the same manner, the third circulation was performed and wet weight of thrombus measured.
The amount of thrombus was given by the equation A. [formula] Each sample was suspended in an aqueous solution of sodium carboxymethyl cellulose and the oral dose of the suspension (100 mg/kg) was performed at 5 hours before the first blood circulation.
The amount of thrombus after the oral dose of the sample was calculated in the same manner as that of control circulations.
The thrombosis inhibition rate was given by the equation B. [formula]

[3] = tested on: male mice; experiment: Analgesic effect: painful stretchings following intraperitoneal 0.7% acetic acid; conditions: Mus musculus, po, read-out: Analgesic: percentage diminition of times of painful stretching
Protocol: Each sample was orally administered in the dosage of 100 mg/kg before injection of acetic acid.

[4] = tested on: platelet; experiment: Blood platelet aggregation inhibiting effect (collagen-induced); type: cell-based, rabbits; conditions: for inhibition at 100 µM: Oryctolagus cuniculus, Platelet, read-out: Blood platelet agg. inh.: percentage inhibition of platelet aggregation
Description: Male rabbits (Japan original white strain 3.3 to 3.6 kg) were anesthetized with Thiopental sodium and blood was sampled from the carotid artery.

[5] = 10^-4 mole, collagen inducer, rabbit PRP
[6] = 100 mg/kg oral, carragheenin edema, male rats (Table 2)
[7] = 100 mg/kg oral, 5 hours before first blood circulation, rats
[8] = 100 mg/kg oral, carragheenin edema, male rats (Table 2')

Compound | inhibition in vivo at 100 mg/kg [3] | inhibition in vivo at 100 mg/kg [1, 6] | inhibition in vivo at 100 mg/kg [2, 7] | inhibition at 100 µM [4, 5] | inhibition in vivo at 100 mg/kg [1, 8] | also measured
COc1ccc(C(=O)C(=O)c2ccccc2)cc1 | 10.2% | – | – | – | – | inhibition in vivo at 100 mg/kg ([1]; po): 43.9%; inhibition in vivo at 100 mg/kg ([2]; po, 5 h): 18.3%; inhibition at 100 µM [4]: 20.1%
CCCCCCc1ccc(C(=O)c2ccc(C)cc2C)cc1 [Active ingredient No. 4] | – | – | – | – | – | Blood platelet agg. inh.: percentage inhibition of platelet aggregation [4, 5]: 20.5%
CCCCCc1ccc(C(=O)c2ccccc2F)cc1 [Active ingredient No. 9, 2-Fluoro-4'-n-amyl-benzophenone] | – | – | – | – | – | anti-inflammatory effect, inhibition rate (ED50), in words [1]: especially high inhibition rate (ED50)
Cc1cc(C)c(C(=O)c2ccccc2F)c(C)c1 [Active ingredient No. 11, 2-Fluoro-2',4',6'-trimethyl-benzophenone] | – | – | – | – | – | anti-inflammatory effect, inhibition rate (ED50), in words [1]: especially high inhibition rate (ED50)
O=C(c1ccccc1)c1ccccc1F [Active ingredient No. 15, 2-fluorobenzophenone] | – | – | – | – | – | anti-inflammatory effect, inhibition rate (ED50), in words [1]: especially high inhibition rate (ED50)
CCCc1ccc(C(=O)c2ccccc2F)cc1 [compound 7] | 15% | 55.6% | 24.6% | 23% | – | –
CCCCc1ccc(C(=O)c2ccccc2F)cc1 [compound 8] | 14.8% | 82.6% | 38% | 24% | – | –
CCCCCc1ccc(C(=O)c2ccccc2F)cc1 [compound 9] | 15.3% | 74.6% | 25.3% | 14.6% | – | –
Cc1ccc(C(=O)c2ccccc2F)c(C)c1 [compound 10] | 20.3% | 47.5% | 29.7% | 18.5% | – | –
Cc1cc(C)c(C(=O)c2ccccc2F)c(C)c1 [compound 11] | 13.9% | 62.3% | 42.9% | 16.5% | – | –
CCc1cc(CC)c(C(=O)c2ccccc2)c(CC)c1 [compound 13] | 15.8% | 38.9% | 20.5% | 14.3% | – | –
Cc1cc(C)c(C(=O)c2ccc(Cl)cc2)c(C)c1 [compound 14] | 19.2% | 37.3% | 23.3% | 18.1% | – | –
O=C(c1ccccc1)c1ccccc1F [compound 15] | 18.5% | 61.4% | 26.5% | 23.2% | – | –
CCCc1ccc(CCC)c(C(=O)c2ccccc2)c1 [compound 16] | 12.4% | 45.2% | 21.5% | 8.6% | – | –
CCCCc1ccc(CCCC)c(C(=O)c2ccc(C)cc2)c1 [compound 17] | 10.3% | 36.3% | 19.5% | 17.3% | – | –
Cc1cc(C)c(C(=O)c2ccccc2)c(C)c1 [compound 30] | – | – | – | – | – | Blood platelet agg. inh.: percentage inhibition of platelet aggregation [4, 5]: 8.7%
O=C(c1ccccc1)c1ccc(C2CCCCC2)cc1 [compound 73] | – | – | – | – | – | Blood platelet agg. inh.: percentage inhibition of platelet aggregation [4, 5]: 20.3%

Compound | inhibition in vivo at 100 mg/kg [3] | inhibition in vivo at 100 mg/kg [1, 6] | inhibition in vivo at 100 mg/kg [2, 7] | inhibition at 100 µM [4, 5] | inhibition in vivo at 100 mg/kg [1, 8] | also measured
COc1ccc(C(=O)c2ccccc2F)cc1 [compound 116] | – | – | – | – | 59.8% | –
CC(C)c1ccc(C(=O)c2ccccc2F)cc1 [compound 117] | – | – | – | – | 53.3% | –
CC(C)Cc1ccc(C(=O)c2ccccc2F)cc1 [compound 118] | – | – | – | – | 32.7% | –
CCC(C)c1ccc(C(=O)c2ccccc2F)cc1 (stereo not drawn) [compound 119] | – | – | – | – | 60.7% | –
CC(C)(C)c1ccc(C(=O)c2ccccc2F)cc1 [compound 120] | – | – | – | – | 38.3% | –
CCC(C)(C)c1ccc(C(=O)c2ccccc2F)cc1 [compound 122] | – | – | – | – | 39.3% | –
CCCCc1ccc(C(=O)c2cccc(F)c2)cc1 [compound 123] | – | – | – | – | 38.3% | –
CCCCCc1ccc(C(=O)c2cccc(F)c2)cc1 [compound 124] | – | – | – | – | 23.5% | –
Cc1cc(C)c(C(=O)c2cccc(F)c2)c(C)c1 [compound 125] | – | – | – | – | 18.1% | –
Cc1ccc(C(=O)c2cccc(F)c2)c(C)c1 [compound 126] | – | – | – | – | 27.7% | –
CCCCc1ccc(C(=O)c2ccc(F)cc2)cc1 [compound 127] | – | – | – | – | 58.8% | –
CCCCCc1ccc(C(=O)c2ccc(F)cc2)cc1 [compound 128] | – | – | – | – | 33.6% | –
CCCCCCCCc1ccc(C(=O)c2ccc(F)cc2)cc1 [compound 129] | – | – | – | – | 38.6% | –
Cc1ccc(C(=O)c2ccc(F)cc2)c(C)c1 [compound 130] | – | – | – | – | 37.8% | –
Cc1cc(C)c(C(=O)c2ccc(F)cc2)c(C)c1 [compound 131] | – | – | – | – | 33.6% | –
CCCc1ccc(C(=O)c2ccccc2Cl)cc1 [compound 132] | – | – | – | – | 14.9% | –
